The experiment addresses T1, PPARδ (Homo sapiens, UniProt Q03181).
T1 construct: fused to amino acids 147-441 of PPARδ downstream of CMV promoter; expressed in transfected cells; host or cells: HEK293 cells, transiently transfected with pFACMV-PPARδ using Fugene
T1 sequence (Q03181 147-441): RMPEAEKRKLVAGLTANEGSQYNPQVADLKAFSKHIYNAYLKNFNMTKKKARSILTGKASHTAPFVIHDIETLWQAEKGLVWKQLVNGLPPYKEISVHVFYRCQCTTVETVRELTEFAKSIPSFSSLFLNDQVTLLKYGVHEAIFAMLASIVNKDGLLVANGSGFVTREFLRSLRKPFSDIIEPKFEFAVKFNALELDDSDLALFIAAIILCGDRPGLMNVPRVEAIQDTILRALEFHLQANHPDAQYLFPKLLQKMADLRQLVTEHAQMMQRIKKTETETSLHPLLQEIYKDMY
Briefly: Transactivation assay (PPARδ GAL4 assay) in transiently transfected HEK293 cells. The settings on record: luciferase reporter, Table 1. In kind it is cell-based. The protocol: Compounds were screened for their functional potency in transiently transfected HEK293 cells for their ability to activate PPAR subtypes. Cells were cultured in DMEM (Invitrogen) supplemented with 10% foetal calf serum, glutamine, penicillin and streptomycin and plated at 10 000 cells/well of a 96-well solid white plate and incubated at 37° C./5% CO2 for 24 hours. Media was removed and the cells washed with PBS. Cells were then transiently transfected using Fugene (Roche) with 50 ng pFACMV-PPARδ (plasmid encoding amino acids 1-147 of the GAL4 DNA binding domain, fused to amino acids 147-441 of PPARδ downstream of CMV promoter) and 250 ng pFR-Luc (reporter plasmid containing 5×GAL4 response elements upstream of a luciferase gene), using a ratio of 3:1 Fugene:DNA. 100 μl of this transfection mixture in DMEM (without foetal calf serum) was added to each well, and the incubation continued for a further 24 hours. The cells are then again washed with PBS prior to the addition of 100 μl reduced serum medium (OptiMEM; Invitrogen). Compounds were added (10 μl in 2% DMSO in OptiMEM) to achieve final concentrations between 0-30 μM. The cells were then returned to the incubator for a further 24 hours. 100 μl of luciferase reagent (Bright Glo, Promega) was added directly to each well, and the luminescence determined using a suitable luminometer.
To measure the selectivity of compounds, their ability to transactivate GAL4 fusions of PPARα LBD and PPARγ LBD was determined. The activity of compounds was expressed as a percentage relative to control compounds: PPARγ rosiglitazone (BRL 49653), PPARδ GW501516 (11) or PPARα KCL1999000269 (12). EC50 values were calculated by fitting of the data to a sigmoidal dose response curve.
On the technique in general: Reporter assays use an easily measured gene product as a stand-in for the process of interest.

pEC50: −log10 of the molar value. Some results are limits rather than exact numbers.

For orientation: pEC50 means the negative decadic logarithm of the EC50, by convention in mol/L. The low end stands for a high EC50, the high end for a low EC50.

Molecule `CCc1cc(C(=O)c2cccc(Cl)c2)c(NC(=O)CSCC(=O)O)s1` [Example 27, {[3-(3-Chloro-benzoyl)-5-ethyl-thiophen-2-ylcarbamoyl]-methylsulfanyl}-acetic acid] showed a negative-log EC50 (pEC50) of 6.00 to 7.00.

As for `CCc1cc(C(=O)c2ccc(Cl)c(Cl)c2)c(NC(=O)CSCC(=O)O)s1` [Example 28, {[3-(3,4-Dichloro-benzoyl)-5-ethyl-thiophen-2-ylcarbamoyl]-methylsulfanyl}-acetic acid], the negative logarithm of the EC50 (pEC50) was above 7.00.

`CCc1cc(C(=O)c2ccc(Cl)c(Cl)c2)c(NC(=O)CSC(C)(C)C(=O)O)s1` [Example 29, 2-{[3-(3,4-Dichloro-benzoyl)-5-ethyl-thiophen-2-ylcarbamoyl]-methylsulfanyl}-2-methyl-propionic acid]: the pEC50 was above 7.00.

Molecule `CCc1cc(C(=O)c2ccc(Cl)c(Cl)c2)c(NC(=O)CC(C)(C)CC(=O)O)s1` [Example 30, 4-[3-(3,4-Dichloro-benzoyl)-5-ethyl-thiophen-2-ylcarbamoyl]-3,3-dimethyl-butyric acid] had a pEC50 of 4.52 to 6.00.

For `CCc1cc(C(=O)c2ccc(F)c(Cl)c2)c(NC(=O)CSCC(=O)O)s1` [Example 31, {[3-(3-Chloro-4-fluoro-benzoyl)-5-ethyl-thiophen-2-ylcarbamoyl]-methylsulfanyl}-acetic acid], the negative logarithm of the EC50 (pEC50) was 6.00 to 7.00.

`CCc1cc(C(=O)c2ccc(F)c(Cl)c2)c(NC(=O)CC(C)(C)CC(=O)O)s1` [Example 32, 4-[3-(3-Chloro-4-fluoro-benzoyl)-5-ethyl-thiophen-2-ylcarbamoyl]-3,3-dimethyl-butyric acid] gave a pEC50 of 4.52 to 6.00.

Turning to `CCc1cc(C(=O)c2ccc(OC(C)C)cc2)c(NC(=O)CSCC(=O)O)s1` [Example 33, {[5-Ethyl-3-(4-isopropoxy-benzoyl)-thiophen-2-ylcarbamoyl]-methylsulfanyl}-acetic acid], the pEC50 was 6.00 to 7.00.

Turning to `CCc1cc(C(=O)c2cccc(Br)c2)c(NC(=O)CSCC(=O)O)s1` [Example 34, {[3-(3-Bromo-benzoyl)-5-ethyl-thiophen-2-ylcarbamoyl]-methylsulfanyl}-acetic acid], the negative logarithm of the EC50 (pEC50) is 6.00 to 7.00.

With `CCc1cc(C(=O)c2ccc(C#N)cc2)c(NC(=O)CSCC(=O)O)s1` [Example 35, {[3-(4-Cyano-benzoyl)-5-ethyl-thiophen-2-ylcarbamoyl]-methylsulfanyl}-acetic acid], the pEC50 was 4.52 to 6.00.

The molecule `CCc1cc(C(=O)c2ccc(-c3ccccc3)cc2)c(NC(=O)CSCC(=O)O)s1` [Example 36, {[3-(Biphenyl-4-carbonyl)-5-ethyl-thiophen-2-ylcarbamoyl]-methylsulfanyl}-acetic acid] showed a pEC50 above 7.00.

The molecule `CCc1cc(C(=O)c2ccc(-c3ccccc3)cc2)c(NC(=O)CC(C)(C)CC(=O)O)s1` [Example 37, 4-[3-(Biphenyl-4-carbonyl)-5-ethyl-thiophen-2-ylcarbamoyl]-3,3-dimethyl-butyric acid] showed a negative logarithm of the EC50 (pEC50) of 6.00 to 7.00.

In turn, `CCc1cc(C(=O)c2ccc(-c3ccc(C(F)(F)F)cc3)cc2)c(NC(=O)CSCC(=O)O)s1` [Example 38, {[5-Ethyl-3-(4′-trifluoromethyl-biphenyl-4-carbonyl)-thiophen-2-ylcarbamoyl]-methylsulfanyl}-acetic acid] had a negative-log EC50 (pEC50) above 7.00.

Molecule `CCc1cc(C(=O)c2ccc(-c3ccc(OC(F)(F)F)cc3)cc2)c(NC(=O)CSCC(=O)O)s1` [Example 39, {[5-Ethyl-3-(4′-trifluoromethoxy-biphenyl-4-carbonyl)-thiophen-2-ylcarbamoyl]-methylsulfanyl}-acetic acid] showed a negative logarithm of the EC50 (pEC50) above 7.00.

`CCc1cc(C(=O)c2ccc(-c3ccc(F)cc3)cc2)c(NC(=O)CSCC(=O)O)s1` [Example 40, {[5-Ethyl-3-(4′-fluoro-biphenyl-4-carbonyl)-thiophen-2-ylcarbamoyl]-methylsulfanyl}-acetic acid] gave a pEC50 above 7.00.

On to `CCc1cc(C(=O)c2ccc(-c3cncnc3)cc2)c(NC(=O)CSCC(=O)O)s1` [Example 41, {[5-Ethyl-3-(4-pyrimidin-5-yl-benzoyl)-thiophen-2-ylcarbamoyl]-methylsulfanyl}-acetic acid], for which the negative-log EC50 (pEC50) was 4.52 to 6.00.

(Values after US20100063065A1 (Inpharmatica Limited, priority 2005, published 2010).)
